According to the NIST ThermoML archive (doi:10.1016/j.jct.2017.07.011):
Numbers after ± are expanded uncertainties.

Settings: 100 kPa, Liquid, Vibrating tube method

mass density (273.65 K)	mass density (274.15 K)	mass density (274.65 K)	mass density (275.15 K)	mass density (275.65 K)	mass density (276.15 K)	mass density (276.65 K)	mass density (277.15 K)	mass density (277.65 K)	mass density (278.15 K)	mass density (278.65 K)	mass density (279.15 K)	mass density (279.65 K)	mass density (280.15 K)	mass density (280.65 K)	mass density (281.15 K)	mass density (281.65 K)	mass density (282.15 K)	Structure (SMILES)
824 ± 2.1 kg/m3	823.6 ± 2.1 kg/m3	823.2 ± 2.1 kg/m3	822.8 ± 2.1 kg/m3	822.5 ± 2.1 kg/m3	822.1 ± 2.1 kg/m3	821.7 ± 2.1 kg/m3	821.3 ± 2.1 kg/m3	820.9 ± 2.1 kg/m3	820.6 ± 2.1 kg/m3	820.2 ± 2.1 kg/m3	819.8 ± 2.1 kg/m3	819.4 ± 2.1 kg/m3	819.1 ± 2.1 kg/m3	818.7 ± 2.1 kg/m3	818.3 ± 2.1 kg/m3	817.9 ± 2.1 kg/m3	817.5 ± 2.1 kg/m3	CCCC(C)O (centres undefined) [pentan-2-ol]
835.7 ± 2.1 kg/m3	835.3 ± 2.1 kg/m3	834.9 ± 2.1 kg/m3	834.5 ± 2.1 kg/m3	834.1 ± 2.1 kg/m3	833.7 ± 2.1 kg/m3	833.3 ± 2.1 kg/m3	832.9 ± 2.1 kg/m3	832.5 ± 2.1 kg/m3	832.1 ± 2.1 kg/m3	831.7 ± 2.1 kg/m3	831.3 ± 2.1 kg/m3	830.9 ± 2.1 kg/m3	830.5 ± 2.1 kg/m3	830.1 ± 2.1 kg/m3	829.7 ± 2.1 kg/m3	829.3 ± 2.1 kg/m3	828.9 ± 2.1 kg/m3	CCC(O)CC [3-pentanol]

Structure (SMILES)	mass density (273.65 K)	mass density (274.15 K)	mass density (274.65 K)	mass density (275.15 K)	mass density (275.65 K)	mass density (276.15 K)	mass density (276.65 K)	mass density (277.15 K)	mass density (277.65 K)	mass density (278.15 K)	mass density (278.65 K)	mass density (279.15 K)	mass density (279.65 K)	mass density (280.15 K)	mass density (280.65 K)	mass density (281.15 K)	mass density (281.65 K)	mass density (282.15 K)
CCC(C)(C)O [2-methylbutan-2-ol]	826.7 ± 2 kg/m3	826.3 ± 2 kg/m3	825.8 ± 2 kg/m3	825.4 ± 2 kg/m3	824.9 ± 2 kg/m3	824.5 ± 2 kg/m3	824 ± 2 kg/m3	823.5 ± 2 kg/m3	823.1 ± 2 kg/m3	822.6 ± 2 kg/m3	822.2 ± 2 kg/m3	821.7 ± 2 kg/m3	821.3 ± 2 kg/m3	820.8 ± 2 kg/m3	820.3 ± 2 kg/m3	819.9 ± 2 kg/m3	819.4 ± 2 kg/m3	819 ± 2 kg/m3
